pEC50: −log10 of the molar value.
Tests used:
Type in all cases: cell-based
[1] = tested on: INS1 cells expressing MitoTimer; assay: MitoTimer red/green ratio high-content screen and dose-response
Description: INS1 cells were stably transduced with MitoTimer by lentiviral infection and were tested using known modulators of autophagy. The paradigm used was based on previous reports showing that the shift in emission from green to red occurs within 18 hours. Assuming that this shift is constant, changes in red FI occurring during this frame of time can result from an effect on MitoTimer clearance and not from an effect on synthesis. The paradigm employed consisted therefore of a treatment lasting 18 hours followed by imaging.
Stimulators of mitochondrial clearance were defined as those inducing a red-to-green FI below −3 and a red intensity below −5.1. Suppressors of mitochondrial clearance were defined as those inducing a red-to-green FI above 10.34 and a red intensity above 4.5. […] Compounds displaying high green FI (above 15) were also discarded to prevent the inclusion of autofluorescent molecules. Only molecules that filled the above criteria in both duplicates were further tested.
The screen was performed during 8 sessions in Weizmann institute. All compounds were tested at a concentration of 10 μM, in duplicates. The images were processed to reduce background (using Metamorph software) and then analyzed in GeneData software.
We subjected those compounds to a dose-response assay (concentrations: 10, 3.33, 1.11, 0.37 and 0.12 μM).
MitoTimer expressing INS1 cells generation, Cell Culture and treatments. MitoTimer-reporter was cloned into the pHAGE2 lenti-vector under the full-length EF1-alpha promoter to obtain constitutive expression. For the HCS, INS1 cells were infected with lentivirus carrying mitochondrial complex-I-targeted-MitoTimer plasmid. Highly expressing cells were selected by high speed fluorescence activated cell sorter (SY3200 cell sorter, Synergy, iCyt) and kept by the addition of puromycin (1 mg . L-1) in the cell media. Cells were thawed before each experiment, and MitoTimer expression checked through fluorescence.
High-Content Screening. […] HCS assay was developed at the Drug Discovery Unit, INCPM, Weizmann Institute of Science. […] Briefly, cells were treated with 10 uM of each compounds for 18 h and imaged in two wavelengths (FITC—excitation […], emission 520/35 nm and TRITC—excitation 543/22 nm, emission 593/40 nm) at ImageXpress Micro High-Content Imaging System/Molecular Devices. Rapamycin 100 nM was used as a control. In each cell plate, the neutral (DMSO) and positive control (Rapamycin) were repeated in 16 replicates while the treatments were performed in duplicates. Each plate was replicated and only hits found in the 2 independent plates were considered. Two fields of each well were analyzed, what normally allowed the analysis of 20-40 cells per condition. MitoTimer red/green ratio for every cell was done in MetaXpress. […] The compounds which affected MitoTimer red/green ratio in a dose response, ranging from […], were classified as a hit.
Individual cells were identified using the red channel, and red and green MitoTimer fluorescence were analyzed and ratio determined per cell.

[2] = tested on: INS1 cells; assay: Mitochondrial mass by Mitotracker green staining; details: 18 h; SPB08007 25 μM, MWP00839 11.5 μM, Urolithin A 25 μM
Description: (§1) The Z-score depicts the standard deviation from the neutral control (DMSO). In FIG. 3C: Mitochondrial mass in INS1 cells treated for 18 hours with either DMSO (control), Urolithin A (25 μM), SPB08007 (“SBP”) (25 μM) or MWP00839 (“MWP”) (11.5 μM) and then stained with Mitotracker green (200 nM). In FIG. 3D: SPB08007 and MWP00839 increase the number of mitochondria inside autolysosomes. INS1 cells expressing mCherry-GFP were exposed to SPB08007, MWP00839, and DMSO for 8 hours and then subjected to confocal microscopy. The area of red fluorescence in the taken images was determined. N=3+/−SEM pANOVA<0.05. FIG. 3E provides representative images. […] FIG. 3F provides the Western blot against LC3 in INS1 cells treated with the compounds in presence or absence of bafilomycin (+b) for the last 2 hours.
Mitotracker Green Fluorescence, Anion Radical Superoxide and Mitochondrial Membrane Potential. INS1 cells were seeded into wells of a 96-wells glass bottom cell culture plate (CELLSTAR) at a density of 2*10^4 cells/well. To assess mitochondrial clearance, a pulse-chase experiment was performed. […] Results are expressed as the percentage of MTG fluorescence relative to MTG fluorescence of the “time 0” control. […] Integrated fluorescence of each field was analyzed in Image J after background subtraction and threshold (IsoData) application. Twenty-four fields of each condition were analyzed in each experiment.

[3] = tested on: INS1 cells; assay: Western blot against LC3 (autophagic flux)
Description: as §1

[4] = tested on: mouse islets; assay: Glucose stimulation insulin secretion assay; details: 25 uM 24 h pretreatment
Description: FIG. 12A show mouse islets were pre-incubated with SPB08007 (25 uM) or DMSO (0.1%) for 24 h. Islets were adapted to KRB media containing glucose 2 mM for 1 h, followed by media exchange containing glucose 2 mM (basal) or 12 mM (stimulated). After 1 h, Insulin released in the media was measured by ELISA. […] N=3. *p<0.05 vs. DMSO basal. ***p<0.001 vs. DMSO.
Islet isolation. Islets were isolated from DBA/2 mice. Briefly, pancreata of anesthetized mice were infused with collagenase (1 mg/ml, type XI, Sigma-Aldrich, Rehovot, Israel), excised, and incubated for 30 min at 37° C. The digested tissue was vortexed, filtered and washed in HBSS (Biological Industries) containing 0.5% BSA (Sigma). The pellet was resuspended in RPMI medium 1640 supplemented with 10% FCS, 50 units/ml penicillin, and 50 μg/ml streptomycin (all from Biological Industries). Islets were collected on a 100-μm cell strainer (BD, Falcon) and hand-picked using stereoscope (Zeiss, Oberkochen, Germany)
Glucose stimulation insulin secretion assay. After 24-hour pretreatment with SPB08007, 25 uM, islets were washed twice with PBS (Biological Industries, Bet-Haemek, Israel). For basal insulin secretion, the islets were incubated with Krebs-Ringer Bicarbonate (KRB) buffer supplemented with 0.5% BSA and 2 mM glucose for 30 min at 37 deg. C and 5% CO2. For stimulated insulin secretion, the buffer was replaced with KRB buffer supplemented with 0.5% BSA and 16 mM glucose and the islets were incubated for additional 60 min. Supernatant insulin content was measured by ELISA (Merck Millipore, Burlington, Mass.).

pEC50 ([1]; Rattus norvegicus, INS1 cells, 18 h, dose-response, read-out: qEC50): 4.31
Structure (SMILES): CC(=O)N/C(=C\c1sc2ccccc2c1C)C(=O)O [SPB08007]
red/green MitoTimer ratio ([1]; 10 uM, INS1 cells): reduced
MitoTimer green readout ([1]; 50 uM dose): increase
maximum reduction on the ratio index (MitoTimer red/green) ([1]; 50 uM dose, 18 h, vs DMSO): 40%
optimal dose for stimulating a reduction in red-to-green FI ([1]; INS1 cells, 18 h): 25 µM
activity (MitoTimer red-to-green FI, Z-score vs DMSO) ([1]; INS1 cells, 18 h, dose-response): −3.018
mitochondrial mass (mitotracker green fluorescence) [2]: reduction in fluorescence
autophagy (LC3II, with or without bafilomycin) [3]: increase in autophagy
insulin secretion fold (glucose stimulated/basal) [4]: higher secretion fold
basal insulin secretion ([4]; 2 mM glucose): significantly reduced
glucose-stimulated insulin secretion ([4]; 16 mM of glucose): maintaining the levels
